Data on 8 compounds can be found in ChEMBL document CHEMBL5608235, “Tricyclic Benzo[1,3]oxazinyloxazolidinones as Potent Antibacterial Agents against Drug-Resistant Pathogens” (J Med Chem, 2024).

Test [1] deals with Mycobacterium tuberculosis. Kind of test: Antibacterial activity against isoniazid/streptomycin/rifampicin/ethambutol/rifabutin/para-axminosalicylate/ofloxacin resistant Mycobacterium tuberculosis 13946 assessed as inhibition of bacterial growth incubated for 7 days by alamar blue assay. Type of test: functional. As to conditions: Mycobacterium tuberculosis, 13946, 168 h; time 7 day. On the technique in general: Resazurin is reduced to fluorescent resorufin, in cell work by metabolically active cells.

Test [2] has as its system Mycobacterium tuberculosis. Briefly: Antibacterial activity against isoniazid/streptomycin/rifampicin/ethambutol/para-axminosalicylate/prothionamide/capreomycin resistant Mycobacterium tuberculosis 14862 assessed as inhibition of bacterial growth incubated for 7 days by alamar blue assay. The format is functional. As to conditions: Mycobacterium tuberculosis, 14862, 168 h; time 7 day.

Values after ≈ are worked out from the molar mass of the structure shown.

Consider `COC(=O)NC[C@@H]1OC(=O)N2Cc3cc(-c4ccc(-c5nnn(C)n5)nc4)c(F)cc3O[C@@H]12`, for which the results for the MIC in test [1] and in test [2] were 0.39 µg/mL (≈ 0.856 µM) and 0.22 µg/mL (≈ 0.483 µM), respectively.

On to `COC(=O)NC[C@@H]1OC(=O)N2Cc3cc(-c4ccc(C#N)nc4)c(F)cc3O[C@@H]12`, for which the minimal inhibitory concentration (MIC) in test [1] amounted to 0.87 µg/mL (≈ 2.18 µM); in test [2], 0.6 µg/mL (≈ 1.51 µM).

Take `CC(=O)NC[C@@H]1OC(=O)N2Cc3cc(-c4ccc(C#N)cc4)c(F)cc3O[C@@H]12`: the values for the MIC in test [1] and in test [2] were 0.11 µg/mL (≈ 0.288 µM) and 0.41 µg/mL (≈ 1.08 µM), respectively.

`CC(=O)NC[C@@H]1OC(=O)N2Cc3c(cc(F)c(-c4ccc(-c5nnn(C)n5)nc4)c3F)O[C@@H]12`: the minimum inhibitory concentration (MIC) in test [1] came to 0.28 µg/mL (≈ 0.612 µM); in test [2] it was 0.33 µg/mL (≈ 0.721 µM).

For the compound `CO[C@H]1/C=C/O[C@@]2(C)Oc3c(C)c(O)c4c(O)c(c(/C=N/N5CCN(C)CC5)c(O)c4c3C2=O)NC(=O)/C(C)=C\C=C\[C@H](C)[C@H](O)[C@@H](C)[C@@H](O)[C@@H](C)[C@H](OC(C)=O)[C@@H]1C` [RIFAMPIN], the MIC in test [1] and in test [2] was above 10 µg/mL throughout.

In the case of `NNC(=O)c1ccncc1` [ISONIAZID], the MIC in test [1] was 4.78 µg/mL (≈ 34.9 µM); in test [2], above 10 µg/mL.

`CC(=O)NC[C@@H]1OC(=O)N2Cc3c(cc(F)c(-c4ccc(C#N)nc4)c3F)O[C@@H]12`: the values for the MIC in test [1] and in test [2] were 0.48 µg/mL (≈ 1.2 µM) and 0.47 µg/mL (≈ 1.17 µM), respectively.

In the case of `COC(=O)NC[C@@H]1OC(=O)N2Cc3cc(-c4ccc(C#N)cc4)c(F)cc3O[C@@H]12`, the MIC in test [1] is 0.56 µg/mL (≈ 1.41 µM); in test [2], 0.24 µg/mL (≈ 0.604 µM).

For orientation: MIC means the lowest concentration that inhibits growth of the organism.
